{"source": "paper PMC8648660", "about": "“Multifunctional thiosemicarbazones targeting sigma receptors: in vitro and in vivo antitumor activities in pancreatic cancer models” (Cellular Oncology, 2021)", "key": {"[1]": {"tested_on": "ATG5, ATG7, ATG12, beclin 1, p62, LC3", "experiment": "Western blotting of autophagy and sequestration markers", "type": "cell-based, human and murine", "settings": "50 µM, 2 h", "method": "Cells were rinsed with ice-cold lysis buffer (50 mM, Tris, 10 mM EDTA, 1 % v/v Triton-X100), supplemented with protease inhibitor cocktail set III (80 µM aprotinin, 5 mM bestatin, 1.5 mM leupeptin, 1 mM pepstatin; Calbiochem, San Diego, CA, USA), 2 mM phenylmethylsulfonyl fluoride and 1 mM Na3VO4, then sonicated and centrifuged at 13,000 g for 10 min at 4 °C. 20 µg protein extracts were subjected to SDS-PAGE and probed with antibodies directed against ATG5, ATG7, ATG12, beclin, p62, LC3, GRP78, ATF6, IRE-1α and PERK (all from Abcam, Cambridge, UK), followed by incubation with a peroxidase-conjugated secondary antibody (Bio-Rad Laboratories). Next, the membranes were washed with Tris-buffered saline-Tween 0.1 % v/v solution, and proteins were detected by enhanced chemiluminescence (Bio-Rad Laboratories). To check for equal loading, the samples were probed with an anti-β-tubulin antibody (Santa Cruz Biotechnology Inc., Santa Cruz, CA, USA)."}, "PANC02 cells": {"tested_on": "PANC02 cells", "experiment": "Cell viability MTT assay 48 h", "type": "cell-based, murine", "settings": "Mus musculus, MTT 48 h, read-out: Activity EC50 ± SEM, PANC02", "method": "(§1) Cell viability was assessed using a MTT assay at 48 h. On day 1, 25,000 cells/well were seeded into 96-well plates in 100 µl culture medium. On day 2, drugs at concentrations ranging from 1 µM to 100 µM were added. In all experiments the drug-solvents (EtOH, DMSO) were added as controls to evaluate possible solvent cyto-toxicities. After the established incubation time with drugs (48 h), MTT (0.5 mg/ml) was added to each well, and after 3–4 h incubation at 37 °C, the supernatants were removed. The formazan crystals formed were solubilized using 100 µl DMSO/EtOH (1:1) after which the absorbance values at 570 and 630 nm were determined using a microplate reader Victor 3 from PerkinElmer Life Sciences."}, "[2]": {"tested_on": "human (MiaPaCa2, PANC-1, AsPC1, BxPC3) and murine (KP02, PANC02) pancreatic cancer cells", "experiment": "Cell viability MTT assay 48 h, panel of pancreatic cancer cell lines", "type": "cell-based", "settings": "range over six pancreatic cancer cell lines; read-out: EC50 cytotoxic activity in all the cell lines studied", "method": "as §1"}, "PANC-1 xenografts": {"tested_on": "PANC-1 xenografts", "experiment": "In vivo xenograft assay, PANC-1", "parameters": "species or system mice", "settings": "for tumor growth / intratumor apoptosis (cleaved caspase 3) and lipid peroxidation: 30 days", "protocol": "2 × 10^5 PANC-1 or Mia-PaCa2 cells were inoculated subcutaneously in the right flank of 6-week old C57BL/6 female nude mice (Charles River Laboratories Italia, Calco), housed (5 per cage) under a 12 h light/dark cycle, with food and drinking water provided ad libitum. Tumor growth was measured daily by caliper, according to the equation (LxW^2)/2, where L = tumor length and W = tumor width. When tumors reached a volume of 100 mm^3, the mice (n = 8/group) were randomized in the following groups and treated daily for 15 days or 30 days intraperitoneally as reported: (1) Vehicle group (100 µl saline solution), (2) FA4^low group (750 nmol FA4 in 100 µl saline solution), (3) FA4^high group (1500 nmol FA4 in 100 µl saline solution) and (4) Gemcitabine group (20 mg/kg gemcitabine, twice a week). Tumor volumes and animal weights were monitored daily. Animals were euthanized at day 18 or 36 after randomization with zolazepam (0.2 ml/kg) and xylazine (16 mg/kg). Next, tumors were excised and paraffin-embedded. Sections were immuno-stained for cleaved caspase 3 (Cell Signalling Technology, Danvers, MA, USA) or with an anti-malondialdehyde antibody (Abcam), followed by a peroxidase-conjugated secondary antibody (Dako, Glostrup, Denmark). The sections were examined under a Leica DC100 microscope (Leica, Wetzlar, Germany). Quantification of the immunohistochemical analyses was performed using ImageJ software (https://imagej.nih.gov/). The staining intensities were expressed as arbitrary units and considered 1 in the vehicle group."}, "sigma-2 receptors [3]": {"target": "T1, sigma-2 receptors (Mus musculus, UniProt Q8VD00)", "T1 construct": "endogenous in cells; host or cells: KP02 (murine pancreatic cancer cells)", "T1 sequence (Q8VD00 whole entry)": "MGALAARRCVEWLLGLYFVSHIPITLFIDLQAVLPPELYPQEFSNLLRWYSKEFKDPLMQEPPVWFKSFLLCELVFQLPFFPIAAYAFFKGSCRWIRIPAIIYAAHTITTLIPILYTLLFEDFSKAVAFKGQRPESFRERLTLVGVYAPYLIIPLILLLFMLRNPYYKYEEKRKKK", "experiment": "Flow cytometry displacement of sigma-2 fluorescent ligand NO1 in murine KP02 cells", "type": "binding", "method": "(§2) Flow cytometry studies to detect receptor densities and ligand binding affinities were carried out according to Abate et al. and Niso et al., for the sigma-1 and sigma-2 receptors, respectively. […] At the end of the incubation periods, the cells were washed twice with PBS, detached with […] Cell Dissociation Solution (Sigma Chemical Co.) for 10 min at 37 °C, centrifuged at 13,000 g for 5 min and resuspended in 500 µl PBS. Fluorescence was recorded using a Bio-Guava® easyCyte™ 5 Flow Cytometry System (Millipore, Billerica, MA, USA) equipped with a 530 nm band pass filter. For each analysis, 50,000 events were collected and analyzed using InCyte software (Millipore)."}, "sigma-2 receptors [4]": {"target": "T2, sigma-2 receptors (Rattus norvegicus, UniProt Q5U3Y7)", "T2 construct": "in rat liver membranes; from tissue; host or cells: rat liver membranes", "T2 sequence (Q5U3Y7 whole entry)": "as the sequence (Q8VD00 whole entry) above, with L4V, A5T, L26M, V33L, L71F, A105V, L118I, V127I, S136N, Y169F counted along it", "experiment": "Sigma-2 radioligand binding assay ([3H]-DTG, rat liver membranes)", "method": "Sigma-2 receptor binding was carried out according to Berardi et al.. […] Concentrations required to inhibit 50 % of radioligand-specific binding (IC50) were determined using six to nine different concentrations of the drug in two or three experiments with samples in duplicate. Scatchard parameters (Kd and Bmax) and apparent inhibition constant (Ki) values were determined by nonlinear curve fitting, using Prism version 5.0, GraphPad software."}, "sigma-2 receptors [5]": {"target": "T3, sigma-2 receptors (Homo sapiens, UniProt Q5BJF2)", "T3 construct": "endogenous in cells; host or cells: MiaPaCa2, PANC-1, AsPC1 (whole cells)", "T3 sequence (Q5BJF2 whole entry)": "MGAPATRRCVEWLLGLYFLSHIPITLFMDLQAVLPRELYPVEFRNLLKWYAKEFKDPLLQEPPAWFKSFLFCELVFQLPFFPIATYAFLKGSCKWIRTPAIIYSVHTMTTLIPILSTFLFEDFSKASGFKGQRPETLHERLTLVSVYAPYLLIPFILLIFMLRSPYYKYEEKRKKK", "experiment": "Flow cytometry displacement of sigma-2 fluorescent ligand NO1 in human pancreatic cancer cells", "type": "binding", "method": "as §2"}, "[6]": {"settings": "mouse, in vivo", "protocol": "2 × 10^5 PANC-1 or Mia-PaCa2 cells were inoculated subcutaneously in the right flank of 6-week old C57BL/6 female nude mice (Charles River Laboratories Italia, Calco), housed (5 per cage) under a 12 h light/dark cycle, with food and drinking water provided ad libitum. Tumor growth was measured daily by caliper, according to the equation (LxW^2)/2, where L = tumor length and W = tumor width. […] Tumor volumes and animal weights were monitored daily. Animals were euthanized at day 18 or 36 after randomization with zolazepam (0.2 ml/kg) and xylazine (16 mg/kg). […] Red blood cell (RBC) count, hemoglobin (Hb), white blood cell (WBC) count, platelet (PLT) count, lactate dehydrogenase (LDH), aspartate aminotransferase (AST), alanine aminotransferase (ALT), alkaline phosphatase (AP), creatinine and creatine phosphokinase (CPK) were measured in blood samples collected immediately after euthanasia, using commercially available kits from Beckman Coulter Inc (Beckman Coulter, Miami, FL, USA).\nBlood was collected immediately after euthanasia and analyzed for red blood cells (RBC) count, hemoglobin (Hb), white blood cells (WBC) count, platelets (PLT) count, lactate dehydrogenase (LDH), aspartate aminotransferase (AST), alanine aminotransferase (ALT), alkaline phosphatase (AP), creatinine, creatine phosphokinase (CPK). Data are presented as means ± SD."}, "caspase 3": {"tested_on": "caspase 3", "experiment": "Caspase 3 activity assay in pancreatic cancer cells", "type": "cell-based, human and murine", "settings": "2 h", "method": "Caspase 3, caspase 7 and caspase 9 activation was measured using a Caspase 3/7 Fluorescence Assay kit (Cayman Chemical, Ann Arbor, MI, USA) and a Caspase 9 fluorometric assay kit (Enzo Life Science, Roma, Italy). The results are expressed as nmol of the hydrolyzed substrate of each caspase/mg cellular proteins, according to a previously set titration curve."}, "PANC-1 cells": {"tested_on": "PANC-1 cells", "experiment": "Cell viability MTT assay 48 h", "type": "cell-based", "settings": "Homo sapiens", "method": "as §1"}, "KP02 cells": {"tested_on": "KP02 cells", "experiment": "Cell viability MTT assay 48 h", "type": "cell-based", "settings": "Mus musculus; MTT 48 h; read-out: Activity EC50 ± SEM, KP02", "method": "as §1"}, "BxPC3 cells": {"tested_on": "BxPC3 cells", "experiment": "Cell viability MTT assay 48 h", "type": "cell-based", "settings": "Homo sapiens, BXPC-3; MTT 48 h; read-out: Activity EC50 ± SEM, BxPC3", "method": "as §1"}, "AspC1 cells": {"tested_on": "AspC1 cells", "experiment": "Cell viability MTT assay 48 h", "type": "cell-based", "settings": "Homo sapiens, MTT 48 h, read-out: Activity EC50 ± SEM, AspC1", "method": "as §1"}, "MiaPaCa2 cells": {"tested_on": "MiaPaCa2 cells", "experiment": "Cell viability MTT assay 48 h", "type": "cell-based", "settings": "Homo sapiens, MIA PaCa-2; MTT 48 h; read-out: Activity EC50 ± SEM, MiaPaCa2", "method": "as §1"}, "HPDE cells": {"tested_on": "HPDE cells", "experiment": "Cell viability MTT assay 48 h", "type": "cell-based", "settings": "Homo sapiens, MTT 48 h, read-out: Activity EC50 ± SEM, HPDE (normal cells)", "method": "as §1"}, "[7]": {"tested_on": "mitochondrial depolarization", "experiment": "Mitochondrial depolarization assay (JC-1)", "type": "cell-based, human and murine", "settings": "50 µM, 2 h, JC1 staining", "method": "Staining with JC-1 fluorescent probe (Biotium Inc., Freemont, CA, USA) was performed as detailed in Riganti et al.. The resulting fluorescence units were used to calculate the percentage of green-fluorescent (i.e., depolarized) mitochondria versus red-fluorescent (i.e., polarized) mitochondria."}}, "note": "“And” between values parts separate entries of the source, which are not always exact repeats. Equal entries are not always repeated. “Also recorded” adds a separate entry of the source.", "data": [{"smiles": "CN(C)C(=S)N/N=C1\\C(=O)N(CCCCN2CCC3(CC2)OCc2ccccc23)c2ccccc21", "note": "[FA4, (Z)-2-(1-(4-(3 H-spiro[isobenzofuran-1,4’-piperidine]-1’-yl)butyl)-2-oxoindolin-3-ylidene)-N,N-dimethylhydrazinecarbothioamide]", "values": [{"measurement": "levels of autophagosome proteins, p62 and LC3 conversion", "setting": "[1]", "result": "reduced the levels of all the above-mentioned proteins as well as the LC-I/LC-II conversion in responsive cells, but not in MiaPaCa2 cells"}, {"measurement": "EC50", "setting": "PANC02 cells", "result": "1940 ± 500", "unit": "nM"}, {"measurement": "EC50", "setting": "[2]", "result": "880 to 3010", "unit": "nM"}, {"measurement": "tumor volume vs vehicle", "setting": "PANC-1 xenografts; FA4 750 nmol (low) and 1500 nmol (high) i.p. daily, 15 days", "result": "tumors were significantly smaller"}, {"measurement": "tumor growth", "setting": "PANC-1 xenografts; FA4 high dosage 1500 nmol i.p. daily", "result": "regression of tumor growth"}, {"measurement": "intratumor apoptosis (cleaved caspase 3) and lipid peroxidation", "setting": "PANC-1 xenografts; FA4 high dosage", "result": "became more pronounced"}, {"measurement": "tumor growth", "setting": "PANC-1 xenografts; FA4 low dosage 750 nmol i.p. daily", "result": "cytostatic effect"}, {"measurement": "intratumor apoptosis (cleaved caspase 3) and lipid peroxidation", "setting": "PANC-1 xenografts; FA4 low dosage", "result": "low or undetectable"}, {"measurement": "IC50", "setting": "sigma-2 receptors [3]", "result": "11.6 ± 1.5", "unit": "nM"}, {"measurement": "Ki", "setting": "sigma-2 receptors [4]", "result": "15.8 ± 3.6", "unit": "nM"}, {"measurement": "IC50", "setting": "sigma-2 receptors [5]; Flow Cytometry, IC50 ± SEM, Sigma-2, AspC1, AspC1 cells, displacement of NO1", "result": "10.6 ± 2.2", "unit": "nM"}, {"measurement": "IC50", "setting": "sigma-2 receptors [5]; Flow Cytometry, IC50 ± SEM, Sigma-2, MiaPaCa2, MiaPaCa2 cells, displacement of NO1", "result": "9.13 ± 1.1", "unit": "nM"}, {"measurement": "IC50", "setting": "sigma-2 receptors [5]; Flow Cytometry, IC50 ± SEM, Sigma-2, PANC-1, PANC-1 cells, displacement of NO1", "result": "11.4 ± 2.3", "unit": "nM"}, {"measurement": "IC50", "setting": "sigma-2 receptors [5]; IC50 at sigma-2 receptors by flow cytometry, across MiaPaCa2, PANC-1, Aspc1 and (murine) KP02 cells", "result": "9.13 to 11.6 nM and ~10 nM"}, {"measurement": "blood cell counts and hemato-chemical parameters vs control", "setting": "[6]", "result": "no significant differences"}, {"measurement": "caspase 3 activation", "setting": "caspase 3; 50 µM, MiaPaCa2, PANC-1, AspC1, KP02, PANC02 cells", "result": "activated caspase 3 in all the cell lines investigated; also recorded: most potent inducer of caspase 3 in all cell lines tested"}, {"measurement": "induction of caspases 3, 7, 9 at IC50 concentration", "setting": "caspase 3; concentration corresponding to IC50 in each cell line", "result": "significant inducer of caspases in all the cell lines analyzed, except for MiaPaCa2"}, {"measurement": "EC50", "setting": "PANC-1 cells; MTT 48 h, read-out: Activity EC50 ± SEM, PANC-1", "result": "3010 ± 800", "unit": "nM"}, {"measurement": "IC50", "setting": "PANC-1 cells; read-out: IC50 in PANC1 cells (discussion)", "result": 3010, "unit": "nM"}, {"measurement": "EC50", "setting": "KP02 cells", "result": "880 ± 100", "unit": "nM"}, {"measurement": "EC50", "setting": "BxPC3 cells", "result": "1360 ± 200", "unit": "nM"}, {"measurement": "EC50", "setting": "AspC1 cells", "result": "1390 ± 300", "unit": "nM"}, {"measurement": "EC50", "setting": "MiaPaCa2 cells", "result": "1980 ± 400", "unit": "nM"}, {"measurement": "EC50", "setting": "HPDE cells", "result": "6110 ± 1100", "unit": "nM"}, {"measurement": "mitochondrial depolarization", "setting": "[7]", "result": "all FA4-treated cells had depolarized (i.e., damaged) mitochondria, except MiaPaCa2"}]}]}
